Reference: patent EP0652009A1, “Identification and use of protease inhibitors” (ELI LILLY AND COMPANY, priority 1993, dated 1995)

Target: Cathepsin D (Homo sapiens, UniProt P07339)
Assay: Assay 3: cathepsin D inhibition activity (non-cellular assay, chromogenic substrate)
Format: biochemical
Set-up: Frozen human placental tissue was thawed and homogenized; from tissue; host or cells: human placenta
Details: cathepsin D from human placental tissue; for Ki: chromogenic substrate, pH 3.7, 37°C; for inhibition at 4 µM: read-out: % inhibition at 4µ M
Experimental: A third non-cellular assay for determining in vitro aspartyl protease inhibitory activity is generally described in Jupp, R.A. et al., (1990) Biochem. J., 265:871-878 and Rao et al., J. Med. Chem. (1993), in press. The assay is carried out by incubating a test compound with a suitable aspartyl protease, such as cathepsin D, in the presence of a chromogenic substrate. The inhibition constant, Ki, value may then be determined by quantifying the competitive inhibition of the hydrolysis of the chromogenic substrate. A variety of chromogenic substrates that are useful for assaying aspartyl protease activity are discussed in Dunn, et al., (1986) Biochem. J., 237:899-906. A preferred chromogenic substrate for a cathepsin D assay is disclosed in Scarborough, P.E. et al., Protein Science, (1993), 2:264-276.
Concentrations of substrate solutions and cleavage products may be verified using amino acid analysis. The enzyme preparations may be titrated with a tightly binding inhibitor to quantitate the active concentration of the enzyme. Enzyme concentrations are typically in the range of from 1-6 nM. Stock solutions of the test compound are prepared at concentrations ranging from 1.0 to 5.0 mg/mL, and then 50-100 µL portions of these stock solutions may be further diluted to a concentration in the range of 5 to 300 µM for rate determinations.
[…] Then, the test compounds are assayed over a concentration range of, for example, 5 to 300 µM for rate determinations.
A decrease in absorbance in the range of 284-324 nm may be monitored using a spectrophotometer. Absorbance readings are typically taken at various timepoints. The initial velocities are then plotted versus the initial substrate concentration. […] Estimates of Ki may then be determined using the Dixon construction. Dixon, M., (1953) Biochem J., 55:170-171.
If the ratio of the total active enzyme concentration to the estimated Ki value ([E]t/Ki) is less than 0.2, then the precise Ki value may be computed by using a non-linear curve fitting program based on the equation: v= Vmax [S]/[S] + Km (1 + [I]/Ki ) [formula] where v is the initial rate, [S] is the initial substrate concentration, [I] is the inhibitor concentration and Km and Ki are defined above. […] P.J.F., (1972) Biochem J., 127:321-333. This Assay is exemplfied in Assay 3.
The homogenate was centrifuged at 10,000 rpm for 30 minutes in a Sorvall GSA rotor. The supernatant was adjusted to pH 3.7 using 5.7N HCl and then sodium acetate was added to a concentration of 0.1M. The resultant mixture was incubated for 30 minutes at 0°C, resulting in the formation of a precipitate. This precipitate was removed by centrifugation (30 minutes, 10,000 rpm). The acidic supernatent was applied to a chromatography column (pepstatinyl agarose equilibrated with 0.1M sodium acetate, pH 3.5, 0.1% Brij 35, and 1M NaCl), washed until the OD₂₈₀ of the effluent returned to baseline, and then eluted with 50mM Tris-HCl, pH 8.6, 0.1% Brij 35, and 1M NaCl. The eluent was dialyzed against 10mM sodium phosphate, pH 7.0, 0.1% Brij 35, and 0.1M NaCl, and then applied to a 1 mL DEAE-Sephacel column equilibrated with the same buffer. Cathepsin D was recovered in the breakthrough fraction.
The enzyme mixture (125 µL buffer (0.1M sodium formate at pH 3.7), 1 µL of a 1mM solution of test compound, 4 µL of DMSO, enzyme and water to provide a total volume of 230 µL) was vortexed and prewarmed for four minutes before the addition of the chromogenic substrate. After warming, the enzyme mixture was added to 20 µL of a […] dilution of substrate solution. A control reaction mixture was similarly prepared without the addition of the test compound. The percent of inhibition of the initial rate of reaction in the presence of a particular concentration of test compound (i.e. 4 µM) may be determined for the test compound by monitoring the reaction mixture in parallel to the control reaction. […]

[1] = 4 µM test compound, inhibition of initial rate relative to control

Sequence of Cathepsin D (P07339 169-412 limits assumed): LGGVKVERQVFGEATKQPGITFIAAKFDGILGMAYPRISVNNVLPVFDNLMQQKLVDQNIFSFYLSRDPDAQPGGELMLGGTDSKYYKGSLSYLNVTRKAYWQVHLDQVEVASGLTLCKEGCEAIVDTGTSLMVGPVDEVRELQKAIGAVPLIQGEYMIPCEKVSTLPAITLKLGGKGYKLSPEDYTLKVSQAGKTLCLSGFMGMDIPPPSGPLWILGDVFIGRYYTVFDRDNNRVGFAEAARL
Sequence of Cathepsin D (P07339 65-162 limits assumed): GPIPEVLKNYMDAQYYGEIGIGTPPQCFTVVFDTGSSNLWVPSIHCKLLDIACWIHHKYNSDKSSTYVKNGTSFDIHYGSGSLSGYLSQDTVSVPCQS

Molecule | Ki [nM] | inhibition at 4 µM [1] [%] | further results
CC(C)C(NC(=O)OCc1ccccc1)C(=O)NC(Cc1ccccc1)C1OC1C(Cc1ccccc1)NC(=O)C(NC(=O)OCc1ccccc1)C(C)C [Example 1, 1,6-Diphenyl-2(S);5(S)-di[N-[2(S)-N(benzyloxycarbonyl)amino-3-methyl-butanoyl]amino]-3,4-cis-epoxyhexane] | 1160 ± 260 |  | 
CC(C)(C)NC(=O)c1ccccc1C[C@@H](O)[C@H](Cc1ccccc1)NC(=O)[C@H](CC(N)=O)NS(=O)(=O)CCc1cccc2ccccc12 [Example 32, [2R-(2R*,3S*,6S*)]-N-t-Butyl-2-[2-hydroxy-3-phenylmethyl-4-aza-5-oxo-6-N(naphth-1-ylethylsulfonyl)amino-7-carbamoyl]heptyl benzamide] |  | 12 | 
CC(C)(C)NC(=O)c1ccccc1C[C@@H](O)[C@H](Cc1ccccc1)NC(=O)[C@H](Cc1cnc[nH]1)NC(=O)[C@@H](Cc1cccc2ccccc12)NC(=O)OC(C)(C)C [Example 28, [2R-(2R*,3S*,6S*,9R*)]-N-t-Butyl-2-[2-hydroxy-3-phenylmethyl-4,7-diaza-5,8-dioxo-6-(imidazol-4-ylmethyl)-9-N(t-butoxycarbonyl)amino-10-naphth-1-yl]decyl benzamide] |  | 6 | 
[1S-(1R*,4R*,5S*)]-N-(1-(2-Amino-2-oxoethyl)-2-oxo-3-aza-4-phenylmethyl-5-hydroxy-6-(2-(1-t-butylamino-1- oxomethyl)phenyl)hexyl)-2-(6,7,8,9-tetrahydronaphthyl) carboxamide [Example 11] |  |  | % inhibition at 4µ M [1]: 32%
Cc1cc(C(=O)N[C@@H](CC(N)=O)C(=O)N[C@@H](Cc2ccccc2)[C@H](O)Cc2ccccc2C(=O)NC(C)(C)C)nc2ccccc12 [Example 10, [1S-(1R*,4R*,5S*)]-N-(1-(2-Amino-2-oxoethyl)-2-oxo-3-aza-4-phenylmethyl-5-hydroxy-6-(2-(1-t-butylamino-1-oxomethyl)phenyl)hexyl)-4-methylquinolin-2-yl carboxamide] | 5510 |  | 
CC(C)(C)NC(=O)c1ccccc1CC(O)C(Cc1ccccc1)NC(=O)C(CC(=O)NCc1ncc[nH]1)NC(=O)c1ccc2ccccc2n1 (stereo not drawn) [Example 17, [1S-(1R*,4R*,5S*)]-N-(1-(2-(N-2-Imidazolylmethyl)amino)-2-oxoethyl)-2-oxo-3-aza-4-phenylmethyl-5-hydroxy-6-(2-(1-t-butylamino-1-oxomethyl)phenyl)hexyl)-2-quinolinyl carboxamide] | 2300 ± 200 |  | 
CCC(NC(=O)N(C)Cc1ccc2ccccc2n1)C(=O)NC(Cc1ccccc1)C1OC1C(Cc1ccccc1)NC(=O)C(CC)NC(=O)N(C)Cc1ccc2ccccc2n1 [Example 4, 1,6-Diphenyl-2(S);5(S)-di[N-[2(S)-N-[[N(methyl)-N(quinolin-2-ylmethyl)amino]carbonyl]aminobutanoyl]amino]-3,4-cis-epoxyhexane] | 6200 |  | 
CC[C@H](NC(=O)OCc1ccccc1)C(=O)N[C@@H](Cc1ccccc1)[C@@H]1O[C@@H]1[C@H](Cc1ccccc1)NC(=O)[C@H](CC)NC(=O)OCc1ccccc1 [Example 2, 1,6-Diphenyl-2(S);5(S)-di[N-[2(S)-N(benzyloxycarbonyl)aminobutanoyl]amino]-3,4-cis-epoxyhexane] | 750 ± 140 |  | 
CC[C@H](C)[C@H](NC(=O)OCc1ccc2ccccc2n1)C(=O)N[C@@H](Cc1ccccc1)[C@@H]1O[C@@H]1[C@H](Cc1ccccc1)NC(=O)[C@@H](NC(=O)OCc1ccc2ccccc2n1)[C@@H](C)CC [Example 3, 1,6-Diphenyl-2(S);5(S)-di[N-[2(S)-N[(quinolin-2-ylmethoxy)carbonyl]amino-3(S)-methylpentanoyl]amino]-3,4-cis-epoxyhexane] |  | 40 | 
CC(C)(C)NC(=O)c1ccccc1CC(O)C(Cc1ccccc1)NC(=O)C(CC(N)=O)NC(=O)C(Cc1cccc2ccccc12)NC(=O)OC(C)(C)C (stereo not drawn) [Example 26, [2R-(2R*,3S*,6S*,9S*)]-N-t-Butyl-2-[2-hydroxy-3-phenylmethyl-4,7-diaza-5,8-dioxo-6-(2-amino-2-oxoethyl)-9-N(t-butoxycarbonyl)amino-10-naphth-1-yl]decyl benzamide] | 2300 ± 410 |  | 
CC(C)(C)NC(=O)c1ccccc1C[C@@H](O)[C@H](Cc1ccccc1)NC(=O)[C@H](CC(N)=O)NC(=O)c1cc(Cl)c2ccccc2n1 [Example 19, [1S-(1R*,4R*,5S*)]-N-(1-(2-Amino-2-oxoethyl)-2-oxo-3-aza-4-phenylmethyl-5-hydroxy-6-(2-(1-t-butylamino-1-oxomethyl)phenyl)hexyl)-4-chloroquinolin-2-yl carboxamide] |  | 48 | 
CC(C)(C)NC(=O)c1sccc1C[C@@H](O)[C@H](Cc1ccccc1)NC(=O)[C@H](CC(N)=O)NC(=O)c1ccc2ccccc2n1 [Example 14, [1S-(1R*,4R*,5S*)]-N-(1-(2-Amino-2-oxoethyl)-2-oxo-3-aza-4-phenylmethyl-5-hydroxy-6-(2-(1-t-butylamino-1-oxomethyl)thien-3-yl)hexyl)-2-quinolinyl carboxamide] |  | 22 | 
CC(C)(C)NC(=O)c1ccccc1C[C@@H](O)[C@H](Cc1ccccc1)NC(=O)[C@H](CC(=O)O)NC(=O)c1ccc2ccccc2n1 [Example 15, [1S-(1R*,R*,5S*)]-N-(1-(2-Hydroxy-2-oxoethyl)-2-oxo-3-aza-4-phenylmethyl-5-hydroxy-6-(2-(1-t-butylamino-1-oxomethyl)phenyl)hexyl)-2-quinolinyl carboxamide] |  | 49 | 
Cc1ccc(CC(O)C(Cc2ccccc2)NC(=O)C(CC(N)=O)NC(=O)c2ccc3ccccc3n2)c(C(=O)NC(C)(C)C)c1 (stereo not drawn) [Example 7, [1S-(1R*,4R*,5S*)]-N-[1-(2-Amino-2-oxoethyl)-2-oxo-3-aza-4-phenylmethyl-5-hydroxy-6-(2-(1-t-butylamino-1-oxomethyl)-4-methylphenyl)hexyl]-2-quinolinyl carboxamide] | 420 ± 60 |  | 
CC(C)(C)NC(=O)c1ccccc1CC(O)C(Cc1ccccc1)NC(=O)C(CC(N)=O)NC(=O)c1ccc2cccc(C(F)(F)F)c2n1 (stereo not drawn) [Example 22, [1S-(1R*,4R*,5S*)]-N-(1-(2-Amino-2-oxoethyl)-2-oxo-3-aza-4-phenylmethyl-5-hydroxy-6-(2-(1-t-butylamino-1-oxomethyl)phenyl)hexyl)-8-trifluoromethyl-quinolin-2-yl carboxamide] | 900 ± 100 |  | 
CCC(C)C(NC(=O)N(C)Cc1ccc2ccccc2n1)C(=O)NC(Cc1ccccc1)C1OC1C(Cc1ccccc1)NC(=O)C(NC(=O)N(C)Cc1ccc2ccccc2n1)C(C)CC [Example 5, 1,6-Diphenyl-2(S);5(S)-di[N-[2(S)-N[[N(methyl)-N(quinolin-2-ylmethyl)amino]carbonyl]amino-3(S)-methylpentanoyl]amino]-3,4-cis-epoxyhexane] | 240 |  | 
CC(C)(C)NC(=O)c1ccccc1CC(O)C(Cc1ccccc1)NC(=O)C(CC(N)=O)NC(=O)c1ccc2ccccc2n1 (stereo not drawn) [Example 6, [1S-(1R*,4R*,5S*)]-N-[1-(2-amino-2-oxoethyl)-2-oxo-3-aza-4-phenylmethyl-5-hydroxy-6-(2-(1-t-butylamino-1-oxomethyl)phenyl)hexyl]-2-quinolinyl carboxamide] | 1800 ± 260 |  | 
CC(C)C(NC(=O)OCc1ccc2ccccc2n1)C(=O)NC(Cc1ccccc1)C(O)C(O)C(Cc1ccccc1)NC(=O)C(NC(=O)OCc1ccc2ccccc2n1)C(C)C [Example 34, 1,6-Diphenyl-2(S),5(S)-di[N-[2(S)-N(quinolin-2-ylmethoxycarbonyl)amino-3-methylbutanoyl]amino]-3,4-dihydroxyhexane] | 18 |  | 
